Test results from publication PMC8880313, “Discovery of Novel Andrographolide Derivatives as Antiviral Inhibitors against Human Enterovirus A71” (Pharmaceuticals, 2022).

How the values were obtained:
[1] = tested on: EV-A71; test: Immunofluorescence-based preliminary screen of EV-A71-infected RD cells; format: cell-based, human enterovirus A71 (EV-A71) strain 41; conditions: EV-A71-infected RD cells (MOI = 1)
From the text: The screening assay was built using an immunofluorescence approach that was previously established and validated, with DAPI-stained nuclei accounting for total cell count and FITC-stained EV-A71 accounting for infected cell count upon EV-A71 infection and compound treatment. Both cell counts would then be used to calculate percentage infection and percentage inhibition to identify for hits. Before the screening platform can be employed to screen for potential antivirals, its robustness has to be appraised. In this study, Z-factor was calculated to assess the robustness of the screening platform. Firstly, seeded RD cells were either infected with EV-A71 (Multiplicity of Infection of 1) or mock-infected with media. The cells were then fixed, stained and imaged 12 h post-infection (hpi). The IFA images were analyzed with the Cell Profiler software to determine the infection rate of each well. Between the virus-infected and mock-infected wells, a clear distinction in infection rates could be observed (Figure 1a). […] In this case, the Z-factor, measured at 0.818, was indicative of a highly robust screening platform for high-throughput screening. The constructed screening platform was then employed to screen the compound library made up of 344 chemically synthesized novel compounds analogous to andrographolide. The compounds were screened at 10 µM with IFA images taken and analyzed to identify for hits. Treatment with 0.1% DMSO was used as vehicle control.
Seeded 96-well plates (Corning Inc., Corning, NY, USA), with 2 × 10^4 RD cells per well, were incubated overnight at 37 °C with 5% CO2. The seeded cells were then infected with EV-A71 (50 µL per well, MOI = 1) for 1 h at 37 °C with 5% CO2. The EV-A71-infected cells were then treated with the compound library at a final concentration of 10 µM for 12 h at 37 °C with 5% CO2. Treatment with 0.1% DMSO was used as vehicle control. Following treatment, cells were fixed with 100 µL of methanol (Sinopharm Chemical, Shanghai, China) for 15 min at −20°C and rinsed with 100 µL of 1x PBS for three times before performing indirect immunofluorescence assay (IFA). Anti-EV-A71 VP2 1° antibodies, MAB979 (Merck Millipore, Burlington, VT, USA), diluted 500-fold in PBS, was incubated with the fixed cells for 1 h at 37 °C. Cells were then rinsed thrice with PBS and incubated with anti-mouse FITC 2° antibodies (Merck Millipore), diluted 200-fold in PBS, for 1 h at 37 °C. After which, the cells were rinsed thrice with PBS before staining with DAPI (Sigma-Aldrich) at room temperature for 15 min. Cells were then rinsed thrice and preserved in 100 µL of PBS before imaging with the Operetta High-Content Imaging System and the Harmony High-Content Imaging and Analysis Software (Perkin Elmer, Waltham, MA, USA). Images of stained cells were captured with the DAPI and FITC fluorescence filters, from a pre-determined central position of each well and processed with the Cell Profiler software. […] The percentage infection (PI) for each well was calculated using the formula: Infected cell count/Total cell count × 100%. The percentage inhibition for each well was calculated using the formula PI0− PI/PI0 × 100% where PI0 refers to the percentage infection of wells treated with the vehicle control while PI refers to the percentage infection of wells treated with the compounds.

[2] = tested on: CV-B5; test: Post-treatment assay, antiviral spectrum; format: cell-based, Coxsackievirus B5
Experimental: We were also interested in the antiviral potential of ZAF-47 against other Enteroviruses. As such, we performed post-treatment assay on RD cells infected with other Enteroviruses such as CV-A16, CV-A6, Echo7, CV-B5, CV-A24 and EV-D68.
To determine the inhibitory profiles of the hits, post treatment assay was performed. Seeded 24-well plates, with 1.5 × 10^5 RD cells per well, were incubated overnight at 37 °C with 5% CO2. The seeded cells were infected with EV-A71 (100 µL per well, MOI = 1) for 1 h at 37 °C with 5% CO2 and then rinsed with 1 mL of PBS twice. Different concentrations of the hits were used to treat the infected cells for 12 h at 37 °C with 5% CO2. At 12 hpi, the plates were frozen and thawed for 2 cycles (−80°C; 37 °C) before collection of supernatants to measure the viral titres via viral plaque assay.
Measurement of the viral titres from collected supernatants was derived from viral plaque assays. To do this, 24-well plates, seeded with 2.4 × 10^5 RD cells per well, were used in plaque assays for EV-A71, EV-D68, Echo7, CV-A6, CV-A16 and CV-A24 while 24-well plates, seeded with 1.2 × 10^5 Vero cells per well, were used in plaque assays for CV-B5. Seeded cells were incubated overnight at 37 °C with 5% CO2. […] Subsequent formation of viral plaques was counted manually to quantify the viral titre in PFU/mL […]

CC(=O)OC[C@]1(C)C(=O)CC[C@@]2(C)C(C/C=C3/C(=O)OC[C@@H]3Oc3cccc4cccnc34)=C(C)CC[C@@H]21 [ZAF-47, (14β)-(8′-Quinolinoxy)-3-ketone-9-dehydro-17-hydro-19-acetoxy–andrographolide]
Nuclei Count ([1]; 10 µM, 12 h, 0.1% DMSO wells 998): 955
inhibition at 10 µM ([1]; Enterovirus A, EVA71, 12 h, read-out: Inhibition Rate (%)): 77.1%
viral titre ([2]; 10 µM, CV-B5-infected RD cells): reducing the viral titres of the above-listed enteroviruses significantly
IC50 ([2]; CVB5, CV-B5, Enterovirus B, drug treatment duration 12 h, RD cells): 2460 nM
